Experimental data taken from US20250332300A1 (priority 2024, published 2025).
pIC50, pKd: −log10 of the molar value. Structures can show the parent of a compound that is named as a salt. Where two headings read alike, the source gives them in different places. Starred links: 1 amine or outer side, 2 acyl side, 3 side chain; linkers in the order of their positions; H or OH if unused. Positions of bridges follow the written chain, without caps; N, C: chain ends. Non-standard residues stand in square brackets, D forms with d. Residues, ends and D or L forms follow the SMILES beside them. Trp(5-OH) = N[C@@H](Cc1c[nH]c2ccc(O)cc12)C(=O)O; NMePhe(4-F) = CN[C@@H](Cc1ccc(F)cc1)C(=O)O; NMehPhe = CN[C@@H](CCc1ccccc1)C(=O)O; NMeAhp(2) = CCCCC[C@H](NC)C(=O)O; Aad = N[C@@H](CCCC(=O)O)C(=O)O; Gly(cPr) = N[C@H](C(=O)O)C1CC1; NMeK = CN[C@@H](CCCCN)C(=O)O; NMeDap = CN[C@@H](CN)C(=O)O; NMeC = CN[C@@H](CS)C(=O)O; Dap = NC[C@H](N)C(=O)O; X5 = O=C(C[*:2])[*:1]

Columns and labels:
Type in all cases: binding
mouse HER2 (23-653) [1] = biological target: T1, mouse HER2 (23-653) (Mus musculus, UniProt P70424); assay: Surface plasmon resonance (SPR) for assessment of peptide affinity, mouse HER2; parameters: mouse HER2 (23-653) using a Cy5 labeled peptide as a probe; made in house
From the text: Each protein was immobilized either onto a SA sensorchip (Cytiva, BR-1005-31) or CM5 sensorchip (Cytiva, BR-1005-30) to a density of 800-2000 RU.

mouse HER2 (23-653) [2] = biological target: T1, mouse HER2 (23-653); assay: TR-FRET competition assay for peptide potency, mouse HER2; parameters: mouse HER2 (23-653) using a Cy5 labeled peptide as a probe; made in house; host or cells: mammalian cells; settings: 0.1 nM mouse HER2, 24 h incubation
human HER2 (23-652) [3] = biological target: T2, human HER2 (23-652) (Homo sapiens, UniProt P04626); assay: Surface plasmon resonance (SPR) for assessment of peptide affinity, human HER2; parameters: towards human HER2 (23-652) and mouse HER2 (23-653); made in house
In short: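 Binding kinetics fitted from sensorgrams with 280 s peptide association then 3000 s dissociation (30 uL/min), using HER2 (23-652) either directly immobilized (SA/CM5) or anti-Fc-captured; 3 M magnesium chloride used for regeneration.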

human HER2 (23-652) [4] = biological target: T2, human HER2 (23-652); assay: TR-FRET competition assay for peptide potency, human HER2; parameters: towards human HER2 (23-652) and mouse HER2 (23-653); made in house; host or cells: mammalian cells; settings: read-out: huHER2 TR-FRET IC50
[5] = SPR, mouse HER2 extracellular domain, 25° C., 1:1 binding model, read-out: moHER2-SPR-ONC KD
[6] = TR-FRET competition with Cy5 labeled peptide probe, read-out: moHER2 TR-FRET IC50
[7] = SPR, human HER2 extracellular domain, 25° C., 1:1 binding model, read-out: huHER2-SPR-ONC KD

pKd (mouse HER2 (23-653) [1]; [5]) | pIC50 (mouse HER2 (23-653) [2]; [6]) | pKd (human HER2 (23-652) [3]; [7]) | pIC50 (human HER2 (23-652) [4]) | SMILES | pKd (mouse HER2 (23-653) [1]) | pIC50 (mouse HER2 (23-653) [2]; moHER2 TR-FRET IC50, TR-FRET competition with Cy5 labeled peptide probe) | pKd (human HER2 (23-652) [3]) | pIC50 (human HER2 (23-652) [4]; TR-FRET competition with Cy5 labeled peptide probe, 0.1 nM human HER2, 24 h incubation)
7.52 | 7.17 | 7.51 | – | CC(=O)N[C@H]1CCC(=O)NC[C@@H](C(=O)N(C)[C@@H](Cc2ccc(F)cc2)C(=O)N2CCC[C@H]2C(N)=O)N(C)C(=O)[C@H](C2CC2)NC(=O)[C@H](Cc2c[nH]c3ccccc23)NC(=O)[C@H](Cc2c[nH]c3ccc(O)cc23)NC(=O)[C@H](CO)N(C)C(=O)[C@H](CCc2ccccc2)N(C)C(=O)[C@H](CO)NC(=O)[C@H](Cc2ccc(O)cc2)NC1=O [Example A30, (3S,6S,9S,12S,15S,18S,21S,24S,27S)-9-((1H-indol-3-yl)methyl)-27-acetamido-N-((S)-1-((S)-2-carbamoylpyrrolidin-1-yl)-3-(4-fluorophenyl)-1-oxopropan-2-yl)-6-cyclopropyl-12-((5-hydroxy-1H-indol-3-yl)methyl)-24-(4-hydroxybenzyl)-15,21-bis(hydroxymethyl)-N,4,16,19-tetramethyl-5,8,11,14,17,20,23,26,30-nonaoxo-18-phenethyl-1,4,7,10,13,16,19,22,25-nonaazacyclotriacontane-3-carboxamide] | – | – | – | –
– | – | – | – | CN1C(=O)[C@H](CO)NC(=O)[C@H](Cc2ccc(O)cc2)NC(=O)[C@@H](N)CCC(=O)NC[C@@H](C(=O)N(C)[C@@H](Cc2ccc(F)cc2)C(N)=O)N(C)C(=O)[C@H](C2CC2)NC(=O)[C@H](Cc2c[nH]c3ccccc23)NC(=O)[C@H](Cc2c[nH]c3ccc(O)cc23)NC(=O)[C@H](CCCCNC(=O)C(F)(F)F)N(C)C(=O)[C@@H]1CCc1ccccc1 [Example A33, (3S,6S,9S,12S,15S,18S,21S,24S,27S)-9-((1H-indol-3-yl)methyl)-27-amino-N-((S)-1-amino-3-(4-fluorophenyl)-1-oxopropan-2-yl)-6-cyclopropyl-12-((5-hydroxy-1H-indol-3-yl)methyl)-24-(4-hydroxybenzyl)-21-(hydroxymethyl)-N,4,16,19-tetramethyl-5,8,11,14,17,20,23,26,30-nonaoxo-18-phenethyl-15-(4-(2,2,2-trifluoroacetamido)butyl)-1,4,7,10,13,16,19,22,25-nonaazacyclotriacontane-3-carboxamide TFA salt] | 7.64 | 7.49 | 7.82 | –
7.03 | 6.79 | – | 7.09 | CC(=O)N[C@H]1CCC(=O)NC[C@@H](C(=O)N(C)[C@@H](Cc2ccc(F)cc2)C(N)=O)N(C)C(=O)[C@H](C2CC2)NC(=O)[C@H](Cc2c[nH]c3ccccc23)NC(=O)[C@H](Cc2c[nH]c3ccc(O)cc23)NC(=O)[C@H](CO)N(C)C(=O)[C@H](CCc2ccccc2)N(C)C(=O)[C@H](CO)NC(=O)[C@H](Cc2ccc(O)cc2)NC1=O [Example A25, (3S,6S,9S,12S,15S,18S,21S,24S,27S)-9-((1H-indol-3-yl)methyl)-27-acetamido-N—((S)-1-amino-3-(4-fluorophenyl)-1-oxopropan-2-yl)-6-cyclopropyl-12-((5-hydroxy-1H-indol-3-yl)methyl)-24-(4-hydroxybenzyl)-15,21-bis(hydroxymethyl)-N,4,16,19-tetramethyl-5,8,11,14,17,20,23,26,30-nonaoxo-18-phenethyl-1,4,7,10,13,16,19,22,25-nonaazacyclotriacontane-3-carboxamide] | – | – | – | –
8.00 | 7.82 | 8.14 | – | CC(=O)NCCCC[C@H]1C(=O)N[C@@H](Cc2c[nH]c3ccc(O)cc23)C(=O)N[C@@H](Cc2c[nH]c3ccccc23)C(=O)N[C@@H](C2CC2)C(=O)N(C)[C@H](C(=O)N(C)[C@@H](Cc2ccc(F)cc2)C(N)=O)CSCC(=O)NC[C@H](NC(C)=O)C(=O)N[C@@H](Cc2ccc(O)cc2)C(=O)N[C@@H](CO)C(=O)N(C)[C@@H](CCc2ccccc2)C(=O)N1C [Example A51, (3R,6S,9S,12S,15S,18S,21S,24S,27S)-9-((1H-indol-3-yl)methyl)-27-acetamido-15-(4-acetamidobutyl)-N-((S)-1-amino-3-(4-fluorophenyl)-1-oxopropan-2-y1)-6-cyclopropyl-12-((5-hydroxy-1H-indol-3-yl)methyl)-24-(4-hydroxybenzyl)-21-(hydroxymethyl)-N,4,16,19-tetramethyl-5,8,11,14,17,20,23,26,30-nonaoxo-18-phenethyl-1-thia-4,7,10,13,16,19,22,25,29-nonaazacyclohentriacontane-3-carboxamide] (Ac-[Dap]YS[NMehPhe][NMeK](Ac)[Trp(5-OH)]W[Gly(cPr)][NMeC][NMePhe(4-F)]-NH2; linker 1-9 via X5) | – | – | – | –
8.08 | 7.89 | 7.96 | – | CC(=O)N[C@H]1CCCC(=O)NC[C@@H](C(=O)N(C)[C@@H](Cc2ccc(F)cc2)C(=O)N2CCC[C@H]2C(N)=O)N(C)C(=O)[C@H](C2CC2)NC(=O)[C@H](Cc2c[nH]c3ccccc23)NC(=O)[C@H](Cc2c[nH]c3ccc(O)cc23)NC(=O)[C@H](CO)N(C)C(=O)[C@H](CCc2ccccc2)N(C)C(=O)[C@H](CO)NC(=O)[C@H](Cc2ccc(O)cc2)NC1=O [Example A26, (3S,6S,9S,12S,15S,18S,21S,24S,27S)-9-((1H-indol-3-yl)methyl)-27-acetamido-N-((S)-1-((S)-2-carbamoylpyrrolidin-1-yl)-3-(4-fluorophenyl)-1-oxopropan-2-yl)-6-cyclopropyl-12-((5-hydroxy-1H-indol-3-yl)methyl)-24-(4-hydroxybenzyl)-15,21-bis(hydroxymethyl)-N,4,16,19-tetramethyl-5,8,11,14,17,20,23,26,31-nonaoxo-18-phenethyl-1,4,7,10,13,16,19,22,25-nonaazacyclohentriacontane-3-carboxamide] | – | – | – | –
8.92 | 8.43 | 8.89 | – | CCCCC[C@H]1C(=O)N(C)[C@@H](CCCCNC(C)=O)C(=O)N[C@@H](Cc2c[nH]c3ccc(O)cc23)C(=O)N[C@@H](Cc2c[nH]c3ccccc23)C(=O)N[C@@H](C2CC2)C(=O)N(C)[C@H](C(=O)N(C)[C@@H](Cc2ccc(F)cc2)C(N)=O)CNC(=O)CCC[C@H](NC(C)=O)C(=O)N[C@@H](Cc2ccc(O)cc2)C(=O)N[C@@H](CO)C(=O)N1C [Example A14, (3S,6S,9S,12S,15S,18S,21S,24S,27S)-9-((1H-indol-3-yl)methyl)-27-acetamido-15-(4-acetamidobutyl)-N-((S)-1-amino-3-(4-fluorophenyl)-1-oxopropan-2-yl)-6-cyclopropyl-12-((5-hydroxy-1H-indol-3-yl)methyl)-24-(4-hydroxybenzyl)-21-(hydroxymethyl)-N,4,16,19-tetramethyl-5,8,11,14,17,20,23,26,31-nonaoxo-18-pentyl-1,4,7,10,13,16,19,22,25-nonaazacyclohentriacontane-3-carboxamide] (Ac-[Aad]YS[NMeAhp(2)][NMeK](Ac)[Trp(5-OH)]W[Gly(cPr)][NMeDap][NMePhe(4-F)]-NH2; lactam 1-9) | – | – | – | –

SMILES | pKd (mouse HER2 (23-653) [1]; [5]) | pIC50 (mouse HER2 (23-653) [2]; [6]) | pKd (human HER2 (23-652) [3]; [7]) | pIC50 (human HER2 (23-652) [4]) | pKd (mouse HER2 (23-653) [1]) | pIC50 (mouse HER2 (23-653) [2]; moHER2 TR-FRET IC50, TR-FRET competition with Cy5 labeled peptide probe) | pKd (human HER2 (23-652) [3]) | pIC50 (human HER2 (23-652) [4]; TR-FRET competition with Cy5 labeled peptide probe, 0.1 nM human HER2, 24 h incubation)
COCCOCCOCCOCCOCCOCCOCCOCCOCCOCCOCCOCCC(=O)N[C@H]1CCCC(=O)NC[C@@H](C(=O)N(C)[C@@H](Cc2ccc(F)cc2)C(=O)N[C@@H](CCCCNC(=O)CN2CCN(CC(=O)O)CCN(CC(=O)O)CCN(CC(=O)O)CC2)C(N)=O)N(C)C(=O)[C@H](C2CC2)NC(=O)[C@H](Cc2c[nH]c3ccccc23)NC(=O)[C@H](Cc2c[nH]c3ccc(O)cc23)NC(=O)[C@H](CCCCNC(C)=O)N(C)C(=O)[C@H](CCc2ccccc2)N(C)C(=O)[C@H](CO)NC(=O)[C@H](Cc2ccc(O)cc2)NC1=O [Example C37] | 9.52 | 9.40 | – | – | – | – | – | 10.00
CC(=O)NCCCC[C@H]1C(=O)N[C@@H](Cc2c[nH]c3ccc(O)cc23)C(=O)N[C@@H](Cc2c[nH]c3ccccc23)C(=O)N[C@@H](C2CC2)C(=O)N(C)[C@H](C(=O)N(C)[C@@H](Cc2ccc(F)cc2)C(=O)N[C@@H](CCCCNC(=O)CN2CCN(CC(=O)O)CCN(CC(=O)O)CCN(CC(=O)O)CC2)C(N)=O)CNC(=O)CCC[C@H](NC(C)=O)C(=O)N[C@H](Cc2ccc(O)cc2)C(=O)N[C@H](CO)C(=O)N(C)[C@@H](CCc2ccccc2)C(=O)N1C [Example C36] | 6.33 | 6.40 | 6.97 | – | – | – | – | –
